# Measured values: patent publication US12029217B2, “Safened compositions comprising pyridine carboxylate herbicides and isoxadifen” (Corteva Agriscience LLC, priority 2018, dated 2024)
# What was measured:
# Format in all cases: in vivo
# [1] = tested on: Abutilon theophrasti (velvetleaf); experiment: Greenhouse postemergence visual injury, velvetleaf (ABUTH); details: Example 6
# Description: (§1) Seeds of the desired test plant species were planted in a 90:10% v/v (volume/volume) mixture of PRO-MIX® BX (Premier Tech Horticulture, Quakertown, PA, USA) and PROFILE® GREENS GRADE™ (Profile Products LLC, Buffalo Grove, IL, USA) planting mixture, which typically has a pH of 5.2 to 6.2 and an organic matter content of at least 50 percent, in plastic pots with a surface area of 103.2 square centimeters (cm^2). When required to ensure good germination and healthy plants, a fungicide treatment and/or other chemical or physical treatment was applied. The plants were grown for 7-36 days (d) in a greenhouse with an approximate 14-hour (h) photo-period which was maintained at about 23° C. during the day and 22° C. during the night. Nutrients and water were added on a regular basis and supplemental lighting was provided with overhead metal halide 1000-Watt lamps as necessary. The plants were employed for testing when they reached the second or third true leaf stage.
# (§2) Emulsifiable concentrates of each of each pyridine carboxylate herbicide (Compound A or Compound B) were prepared at 100 grams acid equivalent per liter (g ae/L). An aliquot of each emulsifiable concentrate was placed in a 25 mL glass vial and diluted with an aqueous mixture of 1.25% (v/v) ACTIROB® B esterified rapeseed oil (Bayer Crop Science, Research Triangle Park, NC, USA) or MSO® Concentrate with LECI-TECH® methylated soybean oil (Loveland Products, Loveland, CO, USA) to obtain concentrated stock solutions at the highest application rate for each herbicide, based upon a 12 milliliter (mL) application volume at a rate of 187 liters per hectare (L/ha). The concentrated stock solutions were further diluted with an aqueous mixture of 1.25% v/v ACTIROB® B or MSO® Concentrate with LECI-TECH® to obtain stock solutions at reduced application rates for each herbicide. Spray solutions of the herbicide combinations (Compound A or Compound B plus safener) were prepared by adding weighed amounts or aliquots of the safener to the stock solutions of Compound A or Compound B to form 12-mL spray solutions in two-way combinations.
# (§3) The spray solutions were applied to the plant material with an overhead Mandel track sprayer equipped with 8002E nozzles calibrated to deliver 187 L/ha over an application area of 0.503 square meters (m^2) at a spray height of 18 inches (43 centimeters (cm)) above the average plant canopy. […]
# (§4) The treated plants and control plants were placed in a greenhouse as described above and watered by sub-irrigation to prevent wash-off of the test compounds. After 20-22 d, the condition of the test plants as compared with that of the control plants was determined visually and scored on a scale of 0 to 100 percent where 0 corresponds to no injury and 100 corresponds to complete kill.
# [2] = tested on: Triticum aestivum (spring wheat); experiment: Greenhouse postemergence visual injury, spring wheat (TRZAS)
# Description: as §1, §2
# (§5) The spray solutions were applied to the plant material with an overhead Mandel track sprayer equipped with 8002E nozzles calibrated to deliver 187 L/ha over an application area of 0.503 square meters (m^2) at a spray height of 18 inches (43 centimeters (cm)) above the average plant canopy. Control plants were sprayed in the same manner with the solvent blank. All herbicide (component a) application rates are given as “g ae/ha” and all safener (component b) application rates are given as “g ai/ha.”
# as §4
# [3] = tested on: Chenopodium album L. (common lambsquarters); experiment: Greenhouse postemergence visual injury, common lambsquarters (CHEAL); details: Example 6
# Description: as §1, §2, §3, §4
# [4] = tested on: Oryza sativa (common rice); experiment: Greenhouse postemergence visual injury, rice (ORYSA); details: Example 6
# Description: as §1, §2, §3, §4
# [5] = tested on: Kochia scoparia (herbicide-resistant kochia); experiment: Greenhouse postemergence visual injury, herbicide-resistant kochia (KCHSC-R); details: Example 6
# Description: as §1, §2, §3, §4
# [6] = tested on: Brassica napus (winter rape); experiment: Greenhouse postemergence visual injury, winter rape (BRSNW)
# Description: as §1, §2, §5, §4
# [7] = tested on: Triticum aestivum (winter wheat); experiment: Greenhouse postemergence visual injury, winter wheat (TRZAW)
# Description: as §1, §2, §5, §4
# [8] = tested on: Erigeron canadensis (Canada horseweed); experiment: Greenhouse postemergence visual injury, Canada horseweed (ERICA)
# Description: as §1, §2, §5, §4
# [9] = tested on: Lolium multiflorum (Italian ryegrass); experiment: Greenhouse postemergence visual injury, Italian ryegrass (LOLMU)
# Description: as §1, §2, §5, §4
# [10] = tested on: Sorghum halepense (Johnson grass); experiment: Greenhouse postemergence visual injury, Johnson grass (SORHA)
# Description: as §1, §2, §5, §4
# [11] = tested on: Hordeum vulgare (spring barley); experiment: Greenhouse postemergence visual injury, spring barley (HORVS)
# Description: as §1, §2, §5, §4
# [12] = tested on: Amaranthus retroflexus (pigweed); experiment: Greenhouse postemergence visual injury, pigweed (AMARE)
# Description: as §1, §2, §5, §4
# [13] = tested on: Amaranthus palmeri (glyphosate-resistant Palmer amaranth); experiment: Greenhouse postemergence visual injury, glyphosate-resistant Palmer amaranth (AMAPA-Gly); details: Example 7
# Description: as §1, §2, §3, §4
# [14] = tested on: Echinochloa crus-galli (barnyardgrass); experiment: Greenhouse postemergence visual injury, barnyardgrass (ECHCG)
# Description: as §1, §2, §5, §4
# [15] = tested on: Ambrosia artemisiifolia (common ragweed); experiment: Greenhouse postemergence visual injury, common ragweed (AMBEL); details: Example 7
# Description: as §1, §2, §3, §4
# [16] = tested on: Amaranthus tamariscinus (common water hemp); experiment: Greenhouse postemergence visual injury, common water hemp (AMATA); details: Example 7
# Description: as §1, §2, §3, §4
# [17] = isoxadifen-ethyl 10 g/ha, Example 1
# [18] = isoxadifen-ethyl 20 g/ha, Example 1
# [19] = isoxadifen-ethyl 20 g/ha, Example 2
# [20] = isoxadifen-ethyl 20 g/ha, Example 4
# [21] = isoxadifen-ethyl 40 g/ha, Example 1
# [22] = isoxadifen-ethyl 40 g/ha, Example 2
# [23] = isoxadifen-ethyl 40 g/ha, Example 4
# [24] = isoxadifen-ethyl 80 g/ha, Example 2
# [25] = isoxadifen-ethyl 80 g/ha, Example 4
# [26] = isoxadifen-ethyl 120 g/ha, Example 2
# [27] = isoxadifen-ethyl 120 g/ha, Example 4
# [28] = isoxadifen-ethyl 20 g/ha, Example 6
# [29] = isoxadifen-ethyl 40 g/ha, Example 6
# [30] = isoxadifen-ethyl 80 g/ha, Example 6
# [31] = isoxadifen-ethyl 10 g/ha, Example 7
# [32] = isoxadifen-ethyl 20 g/ha, Example 7
smiles,measurement,setting,value
"CCOC(=O)C1=NOC(c2ccccc2)(c2ccccc2)C1 [Isoxadifen-ethyl, isoxadifen-ethyl]","% visual injury, Ob",[1]; isoxadifen-ethyl 20 g/ha,0%
same,"% visual injury, Ob",[1]; isoxadifen-ethyl 40 g/ha,0%
same,"% visual injury, Ob",[1]; isoxadifen-ethyl 80 g/ha,0%
same,"% visual injury, Ob",[2]; [17],0%
same,"% visual injury, Ob",[2]; [18],0%
same,"% visual injury, Ob",[2]; [19],0%
same,"% visual injury, Ob",[2]; [20],0%
same,"% visual injury, Ob",[2]; [21],0%
same,"% visual injury, Ob",[2]; [22],0%
same,"% visual injury, Ob",[2]; [23],0%
same,"% visual injury, Ob",[2]; [24],0%
same,"% visual injury, Ob",[2]; [25],0%
same,"% visual injury, Ob",[2]; [26],0%
same,"% visual injury, Ob",[2]; [27],0%
same,"% visual injury, Ob",[3]; isoxadifen-ethyl 20 g/ha,0%
same,"% visual injury, Ob",[3]; isoxadifen-ethyl 40 g/ha,0%
same,"% visual injury, Ob",[3]; isoxadifen-ethyl 80 g/ha,0%
same,"% visual injury, Ob",[4]; isoxadifen-ethyl 20 g/ha,0%
same,"% visual injury, Ob",[4]; isoxadifen-ethyl 40 g/ha,0%
same,"% visual injury, Ob",[4]; isoxadifen-ethyl 80 g/ha,0%
same,"% visual injury, Ob",[5]; isoxadifen-ethyl 20 g/ha,0%
same,"% visual injury, Ob",[5]; isoxadifen-ethyl 40 g/ha,0%
same,"% visual injury, Ob",[5]; isoxadifen-ethyl 80 g/ha,0%
same,"% visual injury, Ob",[6]; [17],0%
same,"% visual injury, Ob",[6]; [18],0%
same,"% visual injury, Ob",[6]; [28],0%
same,"% visual injury, Ob",[6]; [21],0%
same,"% visual injury, Ob",[6]; [29],0%
same,"% visual injury, Ob",[6]; [30],0%
same,"% visual injury, Ob",[7]; [19],0%
same,"% visual injury, Ob",[7]; [28],0%
same,"% visual injury, Ob",[7]; [22],0%
same,"% visual injury, Ob",[7]; [29],0%
same,"% visual injury, Ob",[7]; [24],0%
same,"% visual injury, Ob",[7]; [30],0%
same,"% visual injury, Ob",[7]; [26],0%
same,"% visual injury, Ob",[8]; [31],0%
same,"% visual injury, Ob",[8]; [28],0%
same,"% visual injury, Ob",[8]; [32],0%
same,"% visual injury, Ob",[8]; [29],0%
same,"% visual injury, Ob",[8]; [30],0%
same,"% visual injury, Ob",[9]; [31],0%
same,"% visual injury, Ob",[9]; [28],0%
same,"% visual injury, Ob",[9]; [32],0%
same,"% visual injury, Ob",[9]; [29],0%
same,"% visual injury, Ob",[9]; [30],0%
same,"% visual injury, Ob",[10]; [31],0%
same,"% visual injury, Ob",[10]; [28],0%
same,"% visual injury, Ob",[10]; [32],0%
same,"% visual injury, Ob",[10]; [29],0%
same,"% visual injury, Ob",[10]; [30],0%
same,"% visual injury, Ob",[11]; [17],0%
same,"% visual injury, Ob",[11]; [18],0%
same,"% visual injury, Ob",[11]; [19],0%
same,"% visual injury, Ob",[11]; [21],0%
same,"% visual injury, Ob",[11]; [22],0%
same,"% visual injury, Ob",[11]; [24],0%
same,"% visual injury, Ob",[11]; [26],0%
same,"% visual injury, Ob",[12]; [20],0%
same,"% visual injury, Ob","[12]; isoxadifen-ethyl 20 g/ha, Example 5",0%
same,"% visual injury, Ob",[12]; [28],0%
same,"% visual injury, Ob",[12]; [23],0%
same,"% visual injury, Ob","[12]; isoxadifen-ethyl 40 g/ha, Example 5",0%
same,"% visual injury, Ob",[12]; [29],0%
same,"% visual injury, Ob",[12]; [25],0%
same,"% visual injury, Ob","[12]; isoxadifen-ethyl 80 g/ha, Example 5",0%
same,"% visual injury, Ob",[12]; [30],0%
same,"% visual injury, Ob",[12]; [27],0%
same,"% visual injury, Ob","[12]; isoxadifen-ethyl 120 g/ha, Example 5",0%
same,"% visual injury, Ob",[13]; isoxadifen-ethyl 10 g/ha,0%
same,"% visual injury, Ob",[13]; isoxadifen-ethyl 20 g/ha,0%
same,"% visual injury, Ob",[14]; [31],0%
same,"% visual injury, Ob",[14]; [28],0%
same,"% visual injury, Ob",[14]; [32],0%
same,"% visual injury, Ob",[14]; [29],0%
same,"% visual injury, Ob",[14]; [30],0%
same,"% visual injury, Ob",[15]; isoxadifen-ethyl 10 g/ha,0%
same,"% visual injury, Ob",[15]; isoxadifen-ethyl 20 g/ha,0%
same,"% visual injury, Ob",[16]; isoxadifen-ethyl 10 g/ha,0%
same,"% visual injury, Ob",[16]; isoxadifen-ethyl 20 g/ha,0%
"N#CCOC(=O)c1nc(-c2ccc3cc[nH]c3c2F)c(F)c(N)c1Cl [Compound A, cyanomethyl 4-amino-3-chloro-5-fluoro-6-(7-fluoro-1H-indol-6-yl)pyridine-2-carboxylate]","% visual injury, Ob",[1]; Compound A 20 g/ha,95%
same,"% visual injury, Ob","[2]; Compound A 20 g/ha, Example 1",25%
same,"% visual injury, Ob","[2]; Compound A 40 g/ha, Example 2",23%
same,"% visual injury, Ob","[2]; Compound A 40 g/ha, Example 4",30%
same,"% visual injury, Ob",[3]; Compound A 20 g/ha,88%
same,"% visual injury, Ob",[4]; Compound A 20 g/ha,10%
same,"% visual injury, Ob",[5]; Compound A 20 g/ha,90%
same,"% visual injury, Ob","[6]; Compound A 20 g/ha, Example 1",95%
same,"% visual injury, Ob","[6]; Compound A 20 g/ha, Example 6",85%
same,"% visual injury, Ob","[7]; Compound A 20 g/ha, Example 6",25%
same,"% visual injury, Ob","[7]; Compound A 40 g/ha, Example 2",25%
same,"% visual injury, Ob","[8]; Compound A 10 g/ha, Example 7",90%
same,"% visual injury, Ob","[8]; Compound A 20 g/ha, Example 6",95%
same,"% visual injury, Ob","[8]; Compound A 20 g/ha, Example 7",95%
same,"% visual injury, Ob","[9]; Compound A 10 g/ha, Example 7",18%
same,"% visual injury, Ob","[9]; Compound A 20 g/ha, Example 6",5%
same,"% visual injury, Ob","[9]; Compound A 20 g/ha, Example 7",60%
same,"% visual injury, Ob","[10]; Compound A 10 g/ha, Example 7",10%
same,"% visual injury, Ob","[10]; Compound A 20 g/ha, Example 6",0%
same,"% visual injury, Ob","[10]; Compound A 20 g/ha, Example 7",60%
same,"% visual injury, Ob","[11]; Compound A 20 g/ha, Example 1",0%
same,"% visual injury, Ob","[11]; Compound A 40 g/ha, Example 2",17%
same,"% visual injury, Ob","[12]; Compound A 20 g/ha, Example 6",93%
same,"% visual injury, Ob","[12]; Compound A 40 g/ha, Example 4",100%
same,"% visual injury, Ob","[12]; Compound A 40 g/ha, Example 5",100%
same,"% visual injury, Ob",[13]; Compound A 10 g/ha,100%
same,"% visual injury, Ob",[13]; Compound A 20 g/ha,100%
same,"% visual injury, Ob","[14]; Compound A 10 g/ha, Example 7",100%
same,"% visual injury, Ob","[14]; Compound A 20 g/ha, Example 6",85%
same,"% visual injury, Ob","[14]; Compound A 20 g/ha, Example 7",100%
same,"% visual injury, Ob",[15]; Compound A 10 g/ha,100%
same,"% visual injury, Ob",[15]; Compound A 20 g/ha,100%
same,"% visual injury, Ob",[16]; Compound A 10 g/ha,98%
same,"% visual injury, Ob",[16]; Compound A 20 g/ha,100%
